According to EPA's ToxRefDB 2:

Key:
[1] = test system: mouse; details: Prenatal developmental toxicity study; other; Oral; Gavage/Intubation; dose end: 18 GD; group: maternal; reproductive / reproductive performance / aborted / aborted + reproductive / reproductive performance / estrous cycle / corpora lutea
[2] = test system: rat; details: Sub-acute repeat dose toxicity, fischer, Oral, Feed, dose end: 28 day, group: systemic
[3] = test system: rat; details: Subchronic oral toxicity in rodents, fischer, Feed, dose end: 13 week, group: systemic
[4] = test system: dog; details: Subchronic oral toxicity in nonrodent, beagle, Feed, dose end: 6 month, group: systemic, systemic / clinical chemistry / albumin-globulin ratio / albumin-globulin ratio + systemic / organ weight / liver / absolute + systemic / …
[5] = test system: rat; details: Carcinogenicity; fischer; Oral; Feed; dose end: 24 month; group: systemic; systemic / clinical chemistry / [other] / [other] + systemic / in life observation / body weight / body weight + systemic / in life …
[6] = test system: rat; details: Multigenerational reproductive toxicity study, sprague dawley, Oral, Gavage/Intubation, dose end: 1 generation
[7] = test system: rat; details: Prenatal developmental toxicity study, wistar, Oral, Gavage/Intubation, dose end: 16 GD
[8] = test system: rat; details: Multigenerational reproductive toxicity study, WIST Han Ibm: WIST ISPF, Oral, Feed, dose end: 2 generation
[9] = test system: dog; details: Chronic toxicity, beagle, Oral, Feed, dose end: 52 week, group: systemic
[10] = test system: rabbit; details: Prenatal developmental toxicity study, himalayan, Oral, Gavage/Intubation, dose end: 18 GD, group: maternal
[11] = systemic / in life observation / food consumption / food consumption + systemic / pathology microscopic / stomach / hyperkeratosis + …
[12] = systemic / pathology microscopic / stomach / papilloma + systemic / in life observation / body weight / body weight + systemic / in life …
[13] = systemic / in life observation / body weight / body weight gain + systemic / pathology gross / stomach / thickened + systemic / pathology …
[14] = group: offspring, developmental / developmental landmark / vaginal opening / vaginal opening + systemic / clinical chemistry / cholesterol / cholesterol + …
[15] = group: offspring, systemic / organ weight / spleen / absolute
[16] = group: parental, systemic / organ weight / adrenal gland / absolute + systemic / organ weight / liver / absolute + systemic / organ weight / liver / relative…
[17] = group: parental, systemic / pathology gross / sperm measure / sperm morphology
[18] = group: reproductive, reproductive / reproductive performance / mating / mating + reproductive / reproductive performance / estrous cycle / length
[19] = group: developmental, systemic / in life observation / body weight / fetal weight + systemic / in life observation / body weight / offspring (pup) weight gain
[20] = group: developmental, systemic / in life observation / body weight / fetal weight + systemic / in life observation / body weight / offspring (pup) weight gain + …
[21] = group: maternal, systemic / in life observation / body weight / body weight gain + systemic / in life observation / food consumption / food efficiency
[22] = group: maternal, systemic / in life observation / body weight / body weight gain + systemic / in life observation / food consumption / food efficiency + …
[23] = group: offspring, systemic / in life observation / body weight / offspring (pup) weight + systemic / in life observation / body weight / offspring (pup) …
[24] = group: parental, systemic / in life observation / body weight / body weight + systemic / in life observation / body weight / body weight gain + systemic / …
[25] = systemic / clinical chemistry / alkaline phosphatase (alp/alk) / alkaline phosphatase (alp/alk) + systemic / organ weight / liver / absolute…
[26] = reproductive / reproductive performance / aborted / aborted + systemic / in life observation / body weight / body weight gain + systemic / …

Q: With COc1ccc(O)c(C(C)(C)C)c1 [Butylated hydroxyanisole] as the compound, how does the LEL [1] read?
A: 500 mg/kg/day

Q: What about the LOAEL [1] of the same compound?
A: > 500 mg/kg/day

Q: And the NEL [1]?
A: < 500 mg/kg/day

Q: And the NOAEL [1]?
A: ≥ 500 mg/kg/day

Q: And the LEL [2, 11]?
A: 350 mg/kg/day

Q: What about the NEL [2, 11] of the same compound?
A: < 350 mg/kg/day

Q: And the LOAEL [2, 12]?
A: > 1400 mg/kg/day

Q: What about the NOAEL [2, 12] of the same compound?
A: ≥ 1400 mg/kg/day

Q: What about the LEL ([3]; systemic / clinical chemistry / [other] / [other]) of the same compound?
A: 250 mg/kg/day

Q: What about the NEL ([3]; systemic / clinical chemistry / [other] / [other] + systemic / in life observation / body weight / body weight gain + systemic / in life …) of the same compound?
A: 125 mg/kg/day

Q: What about the LOAEL [3, 13] of the same compound?
A: > 1000 mg/kg/day

Q: What about the NOAEL [3, 13] of the same compound?
A: ≥ 1000 mg/kg/day

Q: What about the LEL [4] of the same compound?
A: 54 mg/kg/day

Q: And the LOAEL [4]?
A: > 219 mg/kg/day

Q: And the NEL [4]?
A: < 54 mg/kg/day

Q: And the NOAEL [4]?
A: ≥ 219 mg/kg/day

Q: And the LEL [5]?
A: 1000 mg/kg/day

Q: What about the LOAEL [5] of the same compound?
A: > 1000 mg/kg/day

Q: What about the NEL [5] of the same compound?
A: < 1000 mg/kg/day

Q: And the NOAEL [5]?
A: ≥ 1000 mg/kg/day

Q: What about the LOAEL [6, 14] of the same compound?
A: > 500 mg/kg/day

Q: And the NOAEL [6, 14]?
A: ≥ 500 mg/kg/day

Q: And the LEL [6, 15]?
A: 10 mg/kg/day

Q: What about the NEL [6, 15] of the same compound?
A: < 10 mg/kg/day

Q: And the LOAEL [6, 16]?
A: > 500 mg/kg/day

Q: And the NOAEL [6, 16]?
A: ≥ 500 mg/kg/day

Q: And the LEL [6, 17]?
A: 10 mg/kg/day

Q: What about the NEL [6, 17] of the same compound?
A: < 10 mg/kg/day

Q: And the NEL ([6]; group: reproductive, reproductive / reproductive performance / mating / mating)?
A: 100 mg/kg/day

Q: And the LEL [6, 18]?
A: 500 mg/kg/day

Q: What about the LOAEL [6, 18] of the same compound?
A: > 500 mg/kg/day

Q: And the NOAEL [6, 18]?
A: ≥ 500 mg/kg/day

Q: Which results are given for CCOC(=O)C1=NN(c2ccc(Cl)cc2Cl)C(C)(C(=O)OCC)C1 (stereo unspecified) [Mefenpyr-diethyl]?
A: LOAEL [7, 19]: 1000 mg/kg/day; NOAEL [7, 19]: < 1000 mg/kg/day; LEL [7, 20]: 1000 mg/kg/day; NEL [7, 20]: < 1000 mg/kg/day; LOAEL [7, 21]: 1000 mg/kg/day; NOAEL [7, 21]: < 1000 mg/kg/day; LEL [7, 22]: 1000 mg/kg/day; NEL [7, 22]: < 1000 mg/kg/day; LEL [8, 23]: 250 mg/kg/day; LOAEL [8, 23]: 250 mg/kg/day; NEL [8, 23]: 50 mg/kg/day; NOAEL [8, 23]: 50 mg/kg/day; LEL [8, 24]: 250 mg/kg/day; LOAEL [8, 24]: 250 mg/kg/day; NEL [8, 24]: 50 mg/kg/day; NOAEL [8, 24]: 50 mg/kg/day; LOAEL [9, 25]: 260 mg/kg/day; NOAEL [9, 25]: 51.4 mg/kg/day; LEL ([9]; systemic / organ weight / liver / relative to body weight): 57.6 mg/kg/day; NEL ([9]; systemic / organ weight / liver / relative to body weight + systemic / clinical chemistry / alkaline phosphatase (alp/alk) / alkaline …): 11.1 mg/kg/day; LOAEL ([10]; reproductive / reproductive performance / aborted / aborted + reproductive / offspring survival early / live fetuses / live fetuses): 250 mg/kg/day; LEL ([10]; reproductive / reproductive performance / aborted / aborted + reproductive / offspring survival early / live fetuses / live fetuses + …): 250 mg/kg/day; NEL [10, 26]: 100 mg/kg/day; NOAEL [10, 26]: 100 mg/kg/day
